Here are results for 15 compounds from patent US10219516B2, “Molecules having pesticidal utility, and intermediates, compositions, and processes, related thereto” (priority 2015, dated 2019).

Each structure is given as a SMILES string. Like-named read-outs stand apart in the source and are kept apart here.

Common to all, as to format: in vivo
Assay [1] deals with Yellow Fever Mosquito (Aedes aegypti, AEDSAE). The experiment in a line: Bioassay on Yellow Fever Mosquito (YFM), 96-well plate larval assay. Particulars: for YFM rating: Yellow Fever Mosquito, 96-well plate larval assay; for YFM (Biological Results, rating): Species YFM (Yellow Fever Mosquito). Put shortly:
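Aedes aegypti larvae (about 1 day old) in liver-powder water were added to plates dispensed from DMSO master plates (4000 ppm stock) diluted with 90:10 water/acetone; six replicate plates per master. Lidded plates were held at room temperature for 3 days, then each well was scored for mortality.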

Assay [2] has as its system Beet Armyworm (Spodoptera exigua, LAPHEG). The experiment in a line: Bioassay on Beet Armyworm (BAW), 128-well diet tray assay. The essentials: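 In a 128-well format, eight wells per compound received a surface dose of 50 μg/cm^2 on artificial diet. After drying, each well got one to five second instar larvae, held at 25° C. with 14:10 photoperiod. Mortality percentages after five to seven days were averaged.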

Assay [3] relates to Cabbage Looper (Trichoplusia ni, TRIPNI). Put plainly: Bioassay on Cabbage Looper (CL), 128-well diet tray assay. Particulars: Trichoplusia ni. The essentials: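 Diet-incorporation-free surface assay: 50 μg/cm^2 compound in acetone-water (90:10), dried on diet; 1–5 2nd-instar larvae/well; 8 wells; vented cover; 25° C., 14:10 L:D, 5–7 d; % mortality averaged over wells.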
[4] abbreviates: Beet Armyworm, 128-well diet tray assay, read-out: BAW rating.
Setting [5] is: Cabbage Looper, 128-well diet tray assay, read-out: CL rating.
The mark [6] stands for this setting: Species BAW (Beet Armyworm), read-out: BAW (Biological Results, rating).
Setting [7] is: Species CL (Cabbage Looper), read-out: CL (Biological Results, rating).

As for `O=C(Nc1cc2cc[nH]c2cc1F)c1cc(NC(=O)[C@H]2[C@H](c3cc(Cl)cc(Cl)c3)C2(Cl)Cl)ccc1Cl` (relative stereo) [F527, 2-Chloro-5-(trans)-(2,2-dichloro-3-(3,5-dichlorophenyl)cyclopropane-1-carboxamido)-N-(6-fluoro-1H-indol-5-yl)benzamide], the YFM rating entry in assay [1] is “A (80-100)”. Also, the pest or weed control at 50 µg/cm2 in assay [2] (setting [4]) and in assay [3] (setting [5]) was 50 to 100% throughout.

As to `CC(=O)Nc1ccc(NC(=O)c2cc(NC(=O)[C@H]3[C@H](c4cc(Cl)cc(Cl)c4)C3(Cl)Cl)ccc2Cl)c(F)c1` (relative stereo) [PF40, trans-N-(4-Acetamido-2-fluorophenyl)-2-chloro-5-(2,2-dichloro-3-(3,5-dichlorophenyl)cyclopropane-1-carboxamido)benzamide], the YFM rating entry in assay [1] is on record as “A (80-100)”. For the same compound, the pest or weed control at 50 µg/cm2 in assay [2] (setting [4]) and in assay [3] (setting [5]) was 50 to 100% throughout.

With `CN(C(=O)c1cc(NC(=O)[C@H]2[C@H](c3ccc(C(F)F)cc3)C2(Cl)Cl)ccc1Cl)c1ccc(F)cc1` (relative stereo) [F599, 2-Chloro-5-(trans-2,2-dichloro-3-(4-(difluoromethyl)phenyl)cyclopropane-1-carboxamido)-N-(4-fluorophenyl)-N-methylbenzamide], the YFM rating result in assay [1] is given as “A (80-100)”. In addition, the pest or weed control at 50 µg/cm2 in assay [2] (setting [4]) and in assay [3] (setting [5]) was 50 to 100% in each case.

As for `O=C(Nc1ncc(F)c(NCc2ccccc2)c1F)c1cc(NC(=O)[C@H]2[C@H](c3cc(Cl)cc(Cl)c3)C2(Cl)Cl)ccc1Cl` [F524, N-(4-(Benzylamino)-3,5-difluoropyridin-2-yl)-2-chloro-5-((1R,3R)-2,2-dichloro-3-(3,5-dichlorophenyl)cyclopropane-1-carboxamido)benzamide], in assay [1], the YFM rating result is “A (80-100)”. Further, the pest or weed control at 50 µg/cm2 in assay [2] (setting [4]) and in assay [3] (setting [5]) was 50 to 100% throughout.

Consider `O=C(Nc1ccc(-c2nccs2)cc1)c1cc(NC(=O)[C@H]2[C@H](c3cc(Cl)cc(Cl)c3)C2(Cl)Cl)ccc1Cl` (relative stereo) [F461, trans-2-Chloro-5-(2,2-dichloro-3-(3,5-dichlorophenyl)cyclopropane-1-carboxamido)-N-(4-(thiazol-2-yl)phenyl)benzamide], for which the YFM rating entry in assay [1] is “A (80-100)”. Also, the pest or weed control at 50 µg/cm2 in assay [2] (setting [4]) and in assay [3] (setting [5]) was 50 to 100% throughout.

In the case of `O=C(Nc1ccc(F)cc1F)c1cc(NC(=O)[C@H]2[C@H](c3ccc(F)c(F)c3)C2(Cl)Cl)ccc1Cl` (relative stereo) [F346, 2-Chloro-5-(trans)-(2,2-dichloro-3-(3,4-difluorophenyl)cyclopropane-1-carboxamido)-N-(2,4-difluorophenyl)benzamide], the “YFM (Biological Results, rating)” value in assay [1] is “A (80-100)”. Further, the pest or weed control at 50 µg/cm2 in assay [2] (setting [6]) and in assay [3] (setting [7]) was 50 to 100% in each case.

With `O=C(Nc1ccc(F)cc1)c1cc(NC(=O)[C@H]2[C@H](c3ccc(Br)c(Cl)c3)C2(Cl)Cl)ccc1Cl` (relative stereo) [F270, 5-(trans-3-(4-Bromo-3-chlorophenyl)-2,2-dichlorocyclopropane-1-carboxamido)-2-chloro-N-(4-fluorophenyl)benzamide], the “YFM (Biological Results, rating)” value in assay [1] was “A (80-100)”. The pest or weed control at 50 µg/cm2 in assay [2] (setting [6]) and in assay [3] (setting [7]) was 50 to 100% throughout.

With `Cn1ccc2c(NC(=O)c3cc(NC(=O)[C@H]4[C@H](c5cc(Cl)cc(Cl)c5)C4(Cl)Cl)ccc3Cl)cccc21` (relative stereo) [F530, 2-Chloro-5-(trans)-(2,2-dichloro-3-(3,5-dichlorophenyl)cyclopropane-1-carboxamido)-N-(1-methyl-1H-indol-4-yl)benzamide], the YFM rating entry in assay [1] was “A (80-100)”. For the same compound, the pest or weed control at 50 µg/cm2 in assay [2] (setting [4]) and in assay [3] (setting [5]) was 50 to 100% throughout.

Turning to `O=C(Nc1ccc2c(c1)C(=O)N(c1ccc(F)cc1)C2=O)c1cc(NC(=O)[C@H]2[C@H](c3cc(Cl)cc(Cl)c3)C2(Cl)Cl)ccc1Cl` (relative stereo) [F504, 2-Chloro-5-(trans)-(2,2-dichloro-3-(3,5-dichlorophenyl)cyclopropane-1-carboxamido)-N-(2-(4-fluorophenyl)-1,3-dioxoisoindolin-5-yl)benzamide], the YFM rating entry in assay [1] was “A (80-100)”. The pest or weed control at 50 µg/cm2 in assay [2] (setting [4]) and in assay [3] (setting [5]) was 50 to 100% throughout.

For the compound `O=C(Nc1ccc2[nH]ccc2c1)c1cc(NC(=O)C2C(c3cc(Cl)cc(Cl)c3)C2(Cl)Cl)ccc1Cl` (stereo not drawn) [F435, 2-Chloro-5-(trans)-2,2-dichloro-3-(3,5-dichlorophenyl)cyclopropane-1-carboxamido)-N-(1H-indol-5-yl)benzamide], the YFM rating result in assay [1] was “A (80-100)”. Moreover, the pest or weed control at 50 µg/cm2 in assay [2] (setting [4]) and in assay [3] (setting [5]) was 50 to 100% in each case.

In the case of `O=C(Nc1ccc(F)cc1)c1cc(NC(=O)C2C(c3cc(Cl)cc(Cl)c3)C2(F)Br)ccc1Cl` (stereo not drawn) [PF51, 5-(trans)-2-Bromo-3-(3,5-dichlorophenyl)-2-fluorocyclopropane-1-carboxamido)-2-chloro-N-(4-fluorophenyl)benzamide], the YFM rating entry in assay [1] is reported as “B (More than 0-Less than 80)”. In addition, the pest or weed control at 50 µg/cm2 in assay [2] (setting [4]) and in assay [3] (setting [5]) was 50 to 100% throughout.

`O=C(Nc1ccc(F)cc1F)c1cc(NC(=O)[C@H]2[C@H](c3ccc(Br)c(F)c3)C2(Cl)Cl)ccc1Cl` (relative stereo) [F364, 5-(trans)-(3-(4-Bromo-3-fluorophenyl)-2,2-dichlorocyclopropane-1-carboxamido)-2-chloro-N-(2,4-difluorophenyl)benzamide]: the “YFM (Biological Results, rating)” value in assay [1] is given as “A (80-100)”. In addition, the pest or weed control at 50 µg/cm2 in assay [2] (setting [6]) and in assay [3] (setting [7]) was 50 to 100% throughout.

Regarding `COc1cc([C@H]2[C@H](C(=O)Nc3ccc(Cl)c(C(=O)Nc4ccc(F)cc4F)c3)C2(Cl)Cl)cc(F)c1Br` (relative stereo) [F542, 5-(trans-3-(4-Bromo-3-fluoro-5-methoxyphenyl)-2,2-dichlorocyclopropane-1-carboxamido)-2-chloro-N-(2,4-difluorophenyl)benzamide], the YFM rating result in assay [1] is “A (80-100)”. Besides, the pest or weed control at 50 µg/cm2 in assay [2] (setting [4]) and in assay [3] (setting [5]) was 50 to 100% throughout.

Take `O=C(CC(F)(F)F)Nc1ccc(NC(=O)c2cc(NC(=O)[C@H]3[C@H](c4cc(Cl)cc(Cl)c4)C3(Cl)Cl)ccc2Cl)cc1` (relative stereo) [PF25, trans-2-chloro-5-(2,2-dichloro-3-(3,5-dichlorophenyl)cyclopropane-1-carboxamido)-N-(4-(3,3,3-trifluoropropanamido)phenyl)benzamide]: the YFM rating result in assay [1] is listed as “B (More than 0-Less than 80)”. The pest or weed control at 50 µg/cm2 in assay [2] (setting [4]) and in assay [3] (setting [5]) was 50 to 100% each time.

`O=C(NC1CCc2ncccc2C1)c1cc(NC(=O)C2C(c3cc(Cl)cc(Cl)c3)C2(Cl)Cl)ccc1Cl` (stereo not drawn) [F567, 2-Chloro-5-trans-(2,2-dichloro-3-(3,5-dichlorophenyl)cyclopropane-1-carboxamido)-N-(5,6,7,8-tetrahydroquinolin-6-yl)benzamide]: in assay [1], the YFM rating entry is “A (80-100)”. The pest or weed control at 50 µg/cm2 in assay [2] (setting [4]) and in assay [3] (setting [5]) was 50 to 100% in each case.
